# In PubChem BioAssay (NCI):
#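 GI50 = concentration required for 50% inhibition of growth. Definition used: TGI = concentration required for complete inhibition of growth.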
# What was measured:
# Experiment in all cases: NCI tumour cell line growth inhibition, 384-well format
# HOP-62 NSCLC = system: HOP-62 NSCLC
# SF-268 CNS = system: SF-268 CNS
# SW-620 colon = system: SW-620 colon
# NCI-H460 NSCLC = system: NCI-H460 NSCLC
# OVCAR-4 ovarian = system: OVCAR-4 ovarian
# LOX IMVI melanoma = system: LOX IMVI melanoma
# HOP-92 NSCLC = system: HOP-92 NSCLC
# RXF 393 renal = system: RXF 393 renal
# COLO 205 colon = system: COLO 205 colon
# 786-0 renal = system: 786-0 renal
# MCF7 breast = system: MCF7 breast
# SK-OV-3 ovarian = system: SK-OV-3 ovarian
# RPMI-8226 leukemia = system: RPMI-8226 leukemia
# BT-549 breast = system: BT-549 breast
# OVCAR-8 ovarian = system: OVCAR-8 ovarian
# MALME-3M melanoma = system: MALME-3M melanoma
# MDA-MB-231 breast = system: MDA-MB-231 breast
# KM12 colon = system: KM12 colon
# SK-MEL-28 melanoma = system: SK-MEL-28 melanoma
# SN12C renal = system: SN12C renal
# OVCAR-5 ovarian = system: OVCAR-5 ovarian
# NCI-H226 lung = system: NCI-H226 lung
# HCC-2998 colon = system: HCC-2998 colon
# HT29 colon = system: HT29 colon
# UACC-62 melanoma = system: UACC-62 melanoma
# MDA-MB-435 melanoma = system: MDA-MB-435 melanoma
# SF-295 CNS = system: SF-295 CNS
# EKVX NSCLC = system: EKVX NSCLC
# CAKI-1 renal = system: CAKI-1 renal
# HCT-15 colon = system: HCT-15 colon
smiles,measurement,setting,value
O=C(Nc1ccc(OC(F)(F)Cl)cc1)c1cnc(N2CC[C@@H](O)C2)c(-c2ccn[nH]2)c1,GI50,HOP-62 NSCLC,9.4 µM
same,TGI,HOP-62 NSCLC,22.7 µM
same,GI50,SF-268 CNS,10.6 µM
same,TGI,SF-268 CNS,23.4 µM
same,GI50,SW-620 colon,7.75 µM
same,TGI,SW-620 colon,19.7 µM
same,GI50,NCI-H460 NSCLC,3.95 µM
same,TGI,NCI-H460 NSCLC,13.3 µM
same,GI50,OVCAR-4 ovarian,6.92 µM
same,TGI,OVCAR-4 ovarian,26.9 µM
same,GI50,LOX IMVI melanoma,7.26 µM
same,TGI,LOX IMVI melanoma,20.2 µM
same,GI50,HOP-92 NSCLC,13.7 µM
same,TGI,HOP-92 NSCLC,26.8 µM
same,GI50,RXF 393 renal,3.84 µM
same,TGI,RXF 393 renal,14.1 µM
same,GI50,COLO 205 colon,5.01 µM
same,TGI,COLO 205 colon,16.6 µM
same,GI50,786-0 renal,5.38 µM
same,TGI,786-0 renal,17.2 µM
same,GI50,MCF7 breast,9.56 µM
same,TGI,MCF7 breast,21.9 µM
same,GI50,SK-OV-3 ovarian,16 µM
same,TGI,SK-OV-3 ovarian,30.7 µM
same,GI50,RPMI-8226 leukemia,3.27 µM
same,TGI,RPMI-8226 leukemia,12.2 µM
same,GI50,BT-549 breast,14.8 µM
same,TGI,BT-549 breast,28.2 µM
same,GI50,OVCAR-8 ovarian,6.65 µM
same,TGI,OVCAR-8 ovarian,19.5 µM
same,GI50,MALME-3M melanoma,6.97 µM
same,TGI,MALME-3M melanoma,20.5 µM
same,GI50,MDA-MB-231 breast,10.4 µM
same,TGI,MDA-MB-231 breast,22.5 µM
same,GI50,KM12 colon,4.57 µM
same,TGI,KM12 colon,15.4 µM
same,GI50,SK-MEL-28 melanoma,15 µM
same,TGI,SK-MEL-28 melanoma,28.5 µM
same,GI50,SN12C renal,13.7 µM
same,TGI,SN12C renal,26.8 µM
same,GI50,OVCAR-5 ovarian,12.1 µM
same,TGI,OVCAR-5 ovarian,25.7 µM
same,GI50,NCI-H226 lung,4.76 µM
same,TGI,NCI-H226 lung,17 µM
same,GI50,HCC-2998 colon,2.85 µM
same,TGI,HCC-2998 colon,8.48 µM
same,GI50,HT29 colon,2.57 µM
same,TGI,HT29 colon,6.27 µM
same,GI50,UACC-62 melanoma,11.6 µM
same,TGI,UACC-62 melanoma,23.9 µM
same,GI50,MDA-MB-435 melanoma,12 µM
same,TGI,MDA-MB-435 melanoma,24.8 µM
same,GI50,SF-295 CNS,11.1 µM
same,TGI,SF-295 CNS,23.2 µM
same,GI50,EKVX NSCLC,14 µM
same,TGI,EKVX NSCLC,28.8 µM
same,GI50,CAKI-1 renal,8.07 µM
same,TGI,CAKI-1 renal,21.1 µM
same,GI50,HCT-15 colon,2.94 µM
